What all share (assay type): in vivo
Test [1] concerns Lolium perenne (LOLPE). Description: Example A post-emergence herbicidal activity, glasshouse pot test. Particulars: Rate 125 g/ha, evaluated 14 or 15 days later, read-out: Post-Emergence Activity LOLPE (100=total damage to plant; 0=no damage to plant). The procedure:
(§1) Seeds of a variety of test species were sown in standard soil in pots. After cultivation for one day (pre-emergence) or after 10 days cultivation (post-emergence) under controlled conditions in a glasshouse, the plants were sprayed with an aqueous spray solution derived from the formulation of the technical active ingredient in 0.6 ml acetone and 45 ml formulation solution containing 10.6% Emulsogen EL (Registry number 61791-12-6), 42.2% N-methylpyrrolidone, 42.2% dipropylene glycol monomethyl ether (Registry number 34590-94-8) and 0.2% X-77 (Registry number 11097-66-8). The test plants were then grown in a greenhouse under optimum conditions until, 14 or 15 days later for post-emergence and 19 or 20 days for pre-emergence, the test was evaluated (100=total damage to plant; 0=no damage to plant). Alopecurus myosuroides (ALOMY), Avena fatua (AVEFA), Lolium perenne (LOLPE), Setaria faberi (SETFA), Digitaria sanguinalis (DIGSA), Echinochloa crus-galli (ECHCG)

In test [2] the test system is Echinochloa crus-galli (ECHCG). The test is described as above. To be noted: Rate 125 g/ha, evaluated 14 or 15 days later, read-out: Post-Emergence Activity ECHCG (100=total damage to plant; 0=no damage to plant). On the procedure: as §1
Test [3] has as its system Alopecurus myosuroides (ALOMY). Described as above. To be noted: Rate 125 g/ha, evaluated 14 or 15 days later, read-out: Post-Emergence Activity ALOMY (100=total damage to plant; 0=no damage to plant). The procedure:
as §1

Test [4] concerns Avena fatua (AVEFA). Described as above. Particulars: Rate 125 g/ha, evaluated 14 or 15 days later, read-out: Post-Emergence Activity AVEFA (100=total damage to plant; 0=no damage to plant). The procedure:
as §1

Test [5] concerns Digitaria sanguinalis (DIGSA). The description is as above. Particulars: Rate 125 g/ha, evaluated 14 or 15 days later, read-out: Post-Emergence Activity DIGSA (100=total damage to plant; 0=no damage to plant). The procedure: as §1
The subject of test [6] is Setaria faberi (SETFA). The description is as above. To be noted: Rate 125 g/ha, evaluated 14 or 15 days later, read-out: Post-Emergence Activity SETFA (100=total damage to plant; 0=no damage to plant). On the procedure: as §1
The subject of test [7] is Lolium perenne (LOLPE). In words: Example A pre-emergence herbicidal activity, glasshouse pot test. To be noted: evaluated 19 or 20 days later, read-out: Pre-Emergence Activity LOLPE (100=total damage to plant; 0=no damage to plant); for pest or weed control at 250 g/ha: Rate 250 g/ha. On the procedure: as §1
In test [8] the test system is Echinochloa crus-galli (ECHCG). The description is as above. Particulars: evaluated 19 or 20 days later, read-out: Pre-Emergence Activity ECHCG (100=total damage to plant; 0=no damage to plant); for pest or weed control at 250 g/ha: Rate 250 g/ha. The procedure:
as §1

Test [9] has as its system Alopecurus myosuroides (ALOMY). The description is as above. To be noted: evaluated 19 or 20 days later, read-out: Pre-Emergence Activity ALOMY (100=total damage to plant; 0=no damage to plant); for pest or weed control at 250 g/ha: Rate 250 g/ha. The procedure: as §1
Test [10] deals with Avena fatua (AVEFA). The test is described as above. To be noted: evaluated 19 or 20 days later, read-out: Pre-Emergence Activity AVEFA (100=total damage to plant; 0=no damage to plant); for pest or weed control at 250 g/ha: Rate 250 g/ha. On the procedure: as §1
Test [11] relates to Digitaria sanguinalis (DIGSA). The test is described as above. Particulars: evaluated 19 or 20 days later, read-out: Pre-Emergence Activity DIGSA (100=total damage to plant; 0=no damage to plant); for pest or weed control at 250 g/ha: Rate 250 g/ha. On the procedure:
as §1

The subject of test [12] is Setaria faberi (SETFA). Described as above. To be noted: evaluated 19 or 20 days later, read-out: Pre-Emergence Activity SETFA (100=total damage to plant; 0=no damage to plant); for pest or weed control at 250 g/ha: Rate 250 g/ha. The procedure: as §1
Test [13] concerns Echinochloa crus-galli (ECHCG). In words: Example B pre-emergence herbicidal activity, glasshouse pot test. To be noted: 312 h, Rate 250 g/ha, evaluated after 13 days, read-out: Pre-Emergence Activity ECHCG (100=total damage to plant; 0=no damage to plant). The gist of the method:
(§2)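 Visual damage (0 = no damage, 100 = total damage) read 13 days after spraying. Application was to pots 1 day (pre-emergence) or 8 days (post-emergence) after sowing, as an aqueous spray from acetone/water (50:50) with 0.5% Tween 20.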

The test system of test [14] is Alopecurus myosuroides (ALOMY). The description is as above. Particulars: 312 h, Rate 250 g/ha, evaluated after 13 days, read-out: Pre-Emergence Activity ALOMY (100=total damage to plant; 0=no damage to plant). A digest of the protocol: as §2
The test system of test [15] is Avena fatua (AVEFA). The test is described as above. To be noted: 312 h, Rate 250 g/ha, evaluated after 13 days, read-out: Pre-Emergence Activity AVEFA (100=total damage to plant; 0=no damage to plant). A digest of the protocol:
as §2

For test [16], the system named is Amaranthus retoflexus (AMARE). The description is as above. Particulars: Amaranthus retroflexus, 312 h, Rate 250 g/ha, evaluated after 13 days, read-out: Pre-Emergence Activity AMARE (100=total damage to plant; 0=no damage to plant). The gist of the method:
as §2

In test [17] the test system is Setaria faberi (SETFA). Described as above. To be noted: 312 h, Rate 250 g/ha, evaluated after 13 days, read-out: Pre-Emergence Activity SETFA (100=total damage to plant; 0=no damage to plant). The gist of the method: as §2
The subject of test [18] is Echinochloa crus-galli (ECHCG). In words: Example B post-emergence herbicidal activity, glasshouse pot test. To be noted: 312 h, rate 250 g/ha, evaluated after 13 days, read-out: Post-emergence activity ECHCG (100=total damage to plant; 0=no damage to plant). A digest of the protocol:
as §2

In test [19] the test system is Alopecurus myosuroides (ALOMY). The test is described as above. To be noted: 312 h, rate 250 g/ha, evaluated after 13 days, read-out: Post-emergence activity ALOMY (100=total damage to plant; 0=no damage to plant). The gist of the method: as §2
The test system of test [20] is Avena fatua (AVEFA). Described as above. Particulars: 312 h, rate 250 g/ha, evaluated after 13 days, read-out: Post-emergence activity AVEFA (100=total damage to plant; 0=no damage to plant). A digest of the protocol: as §2
Test [21] has as its system Amaranthus retoflexus (AMARE). The description is as above. To be noted: Amaranthus retroflexus, 312 h, rate 250 g/ha, evaluated after 13 days, read-out: Post-emergence activity AMARE (100=total damage to plant; 0=no damage to plant). A digest of the protocol:
as §2

In test [22] the test system is Setaria faberi (SETFA). Described as above. To be noted: 312 h, rate 250 g/ha, evaluated after 13 days, read-out: Post-emergence activity SETFA (100=total damage to plant; 0=no damage to plant). The gist of the method:
as §2

Regarding `Cc1sc(-c2ccc(Cl)cc2)nc1C1C(=O)[C@H]2[C@@H]3CC[C@@](C)(O3)[C@H]2C1=O` (mixture of isomers) [Compound T24], the pest or weed control at 125 g/ha was determined as 30% in [1]; 100% in test [2]; 70% in [3]; 70% in [4]; 90% in test [5]; 80% in test [6]. Besides, the pest or weed control at 250 g/ha in test [7] was 90%; in test [8], 100%; in test [9], 90%; in [10] it was 60%; in [11] it was 100%; in [12], 100%.
For the compound `CCc1sc(-c2ccc(Cl)cc2)nc1C1C(=O)[C@H]2[C@@H]3CC[C@@](C)(O3)[C@H]2C1=O` (mixture of isomers) [Compound T25, 4-[2-(4-chloro-phenyl)-5-ethyl-thiazol-4-yl]-1-methyl-10-oxa-tricyclo[5.2.1.0*2,6*]decane-3,5-dione], the pest or weed control at 125 g/ha turned out to be 50% in test [1]; 100% in test [2]; 100% in [3]; 100% in test [4]; 100% in [5]; 90% in test [6]. The pest or weed control at 250 g/ha came to 100% in test [7]; 100% in test [8]; 90% in [9]; 90% in test [10]; 100% in test [11]; 100% in [12].
As to `Cc1sc(-c2ccc(Cl)cc2)cc1C1=C(OC(=O)C(C)(C)C)[C@@H]2[C@H](C1=O)[C@H]1CC[C@@H]2O1` (racemic) [Compound P1], the pest or weed control at 125 g/ha amounted to 60% in [1]; 100% in test [2]; 70% in [3]; 80% in test [4]; 80% in test [5]; 90% in test [6]. For the same compound, the pest or weed control at 250 g/ha in test [7] is 30%; in test [8], 20%; in test [9], 30%; in test [10] it was 0%; in test [11], 0%; in [12], 0%.
For the compound `Cc1sc(-c2ccc(Cl)cc2)cc1C1=C(OC(=O)C(C)C)[C@@H]2[C@H](C1=O)[C@H]1CC[C@@H]2O1` (racemic) [Compound P2], the pest or weed control at 125 g/ha in [1] worked out at 70%; in [2], 100%; in test [3] it was 90%; in [4], 90%; in test [5], 80%; in test [6] it was 80%. The pest or weed control at 250 g/ha is 50% in test [7]; 50% in test [8]; 30% in [9]; 0% in [10]; 0% in test [11]; 0% in [12].
Turning to `Cc1scc(Br)c1C1C(=O)[C@@H]2[C@H](C1=O)[C@H]1CC[C@@H]2O1` (stereo partly shown) [Compound T4], the pest or weed control at 125 g/ha turned out to be 40% in test [1]; 80% in [2]; 10% in [3]; 30% in test [4]; 60% in [5]; 40% in test [6]. Further, the pest or weed control at 500 g/ha amounted to 70% in [7] (Rate 500 g/ha); 70% in [8] (Rate 500 g/ha); 70% in [9] (Rate 500 g/ha); 70% in test [10] (Rate 500 g/ha); 30% in test [11] (Rate 500 g/ha); 70% in test [12] (Rate 500 g/ha).
With `Cc1sc(-c2ccc(OC(F)F)cc2F)nc1C1C(=O)[C@@H]2[C@H](C1=O)[C@H]1CC[C@@H]2O1` (stereo partly shown) [Compound T54], the pest or weed control at 250 g/ha was 100% in test [13]; 90% in [14]; 100% in [15]; 0% in test [16]; 100% in [17]; 100% in [18]. In addition, the pest or weed control at 250 g/ha in [19] amounted to 100%; in test [20], 100%; in [21], 40%; in [22] it was 100%.

The record behind these values is patent publication US8530667B2, “Herbicides” (Syngenta Limited, priority 2007, dated 2013).
